Like-named read-outs stand apart in the source and are kept apart here.

Series [1] can be described thus: Ligand charge of maytansinoid conjugates. The format is physicochemical.
Series [2] in a line: Half-life in rat liver microsomes. The format is in vitro ADME. Conditions: read-out: rat LM t½ (mm). The procedure: (§1) Half-life (t1/2) of maytansinoid conjugates were measured in rat plasma and rat liver microsomes (LM). PK values of maytansinoid conjugates in NCI-H69 SCLC (small cell lung cancer) tumor cells were measured.
For orientation: Liver microsomes are vesicles of endoplasmic reticulum, rich in cytochrome P450 enzymes.

The next series has as its target human SSTR2 (Homo sapiens, UniProt P30874). Briefly: Radioligand-receptor binding assay, [125I] somatostatin, membranes from SSTR2 expressing CHO-K1 cells. In a few lines: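 CHO-K1 SSTR2 membranes incubated 4 h with 0.03 nM [125I] somatostatin and conjugates in a 10-point, 6-fold series from 10 uM. Bound radioligand measured after filtration and washing; IC50 by non-linear least-squares regression.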

A short description of another series: Half-life in rat plasma. The series is classed as in vitro ADME. Conditions: read-out: rat plasma t½ (converted). On the procedure: as §1
In series [3] the test system is NCI-H524 (ATCC) human lung cancer cells. The format is cell-based. The gist of the method: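 NCI-H524 cells (5,000/well) exposed to conjugates for 6 hours, washed, then grown a further 66 hours; ten-point threefold dilutions from 20 μM. Proliferation by CellTiter-Glo versus vehicle; IC50 by four-parameter nonlinear regression, measured with and without octreotide competition.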

The next series concerns human NCI-H69 SCLC. Briefly: H69 xenograft efficacy study, tumor growth inhibition. The series is classed as in vivo, mice. Conditions: for TGI % Day 11 / TGI % Day 14 / TGI % Day 18 / TGI % Day 21 / TGI % Day 25: 0.7 mg/kg once weekly for two doses. The procedure:
Applicants assessed the activity of maytansinoid conjugates in vivo. In these experiments, the ability of conjugates to affect the growth of human NCI-H69 SCLC was tested. For the in vivo study, 8 week old female NCR nude mice were inoculated subcutaneously into the right flank with 2 million cells in 1:1 RPMI 1640 (Invitrogen, Carlsbad, Calif.)/Matrigel® (BD Biosciences, San Jose, Calif.). Tumor measurements were taken twice weekly, using vernier calipers. Tumor volume was calculated using the formula: V=0.5×width×width×length.
When tumors approached a volume of 200 mm^3, mice were randomized into four groups of ten animals. Mice were treated with vehicle control (10% propylene glycol in water for injection) and maytansinoid conjugates (10% propylene glycol in water for injection). Final tumor volumes were analyzed using with a one-way analysis of variance and Tukey multiple comparison test.

In the next series the test system is phospho-histone H3. Briefly: Phospho-histone H3 response in NCI-H69 tumors. The format is in vivo, mice. The procedure: Phospho-histone H3 response in NCI-H69 tumors was measured. […] At 24 hour, adjusted phospho-histone H3 response for Conjugate 6 was about 500 (fluorescence signal) and at 48 hour it was about 2300 (fluorescence signal).
In series [4] the test system is NCI-H69 SCLC (small cell lung cancer) tumor cells. Briefly: H69 tumor PK. The series is classed as in vivo. On the procedure: as §1
Series [5] is described as follows: Pharmacokinetics study in mouse. Conditions: in vivo. On the procedure:
Pharmacokinetics studies in mouse were also carried out. Half-life, Cmax and AUC values of Conjugate 6 were show in Table 10.

A short description of series [6]: Chrom LogP of maytansinoid conjugates. The series is classed as physicochemical.
Where [7] appears, read: read-out: H524 IC50 6 h, 6 hours treatment, further 66 hours incubation.
The mark [8] stands for this setting: read-out: H524 IC50 with 100 μM octreotide 6 h, with 100 μM octreotide competition, 6 h treatment.
Setting [9] is: 1.3 mg/kg once weekly for two doses.
[10] abbreviates: 2 mg/kg once weekly for two doses.
[11] abbreviates: 1.5 mg/kg once weekly for two doses.

Chain of human SSTR2 (P30874 whole entry): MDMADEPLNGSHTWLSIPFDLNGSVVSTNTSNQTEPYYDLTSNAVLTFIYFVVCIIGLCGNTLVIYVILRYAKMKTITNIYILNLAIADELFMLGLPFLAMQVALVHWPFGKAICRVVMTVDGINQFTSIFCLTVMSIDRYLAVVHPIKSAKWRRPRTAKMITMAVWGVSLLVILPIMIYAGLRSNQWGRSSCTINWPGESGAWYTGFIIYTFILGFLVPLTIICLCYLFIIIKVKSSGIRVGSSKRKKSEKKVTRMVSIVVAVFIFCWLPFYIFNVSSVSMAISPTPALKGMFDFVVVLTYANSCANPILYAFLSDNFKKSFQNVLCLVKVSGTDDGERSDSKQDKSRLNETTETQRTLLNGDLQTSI

A word on the Ki: it is the dissociation constant of the complex between target and ligand, obtained from inhibition or displacement. Low readings indicate higher affinity, high ones lower affinity. By IC50 is commonly meant the concentration that gives 50% inhibition. A word on the AUC(0-inf): it is the area under the concentration-time curve extrapolated to infinity. High values mean high exposure, low ones low exposure. The term Cmax denotes the highest concentration seen after dosing. By chromatographic logP is commonly meant lipophilicity estimated from chromatographic retention. Higher therefore signals higher lipophilicity. `COc1cc2cc(c1Cl)N(C)C(=O)C[C@H](OC(=O)[C@H](C)N(C)C(=O)CCSSC(C)(C)[C@H](NC(=O)[C@@H]1CSSC[C@H](NC(=O)[C@H](N)Cc3ccccc3)C(=O)N[C@@H](Cc3ccc(O)cc3)C(=O)N[C@H](Cc3c[nH]c4ccccc34)C(=O)N[C@@H](CCCCN)C(=O)N[C@@H]([C@@H](C)O)C(=O)N1)C(N)=O)[C@]1(C)O[C@H]1[C@H](C)[C@@H]1C[C@@](O)(NC(=O)O1)[C@H](OC)/C=C/C=C(\C)C2` [Conjugate 6]: the Ligand charge entry in series [1] is reported as “+2”. For the same molecule, the half-life in [2] amounted to 2.97 h. This molecule also returned a Ki on human SSTR2 of 0.021 nM. For the same molecule, in the series “Half-life in rat plasma”, the half-life is 18.2 h. Moreover, the half-inhibitory concentration (IC50) in series [3] (setting [7]) amounted to 13 nM. Moreover, the 50% inhibitory concentration (IC50) in series [3] (setting [8]) worked out at 545 nM. The “TGI % at day 33” value in the series with human NCI-H69 SCLC (0.7 mg/kg once weekly for three doses, day 33) is 31.9%. In addition, in the series on human NCI-H69 SCLC, the “TGI % Day 11” value turned out to be 55%, the “TGI % Day 14” value came to 60%, the “TGI % Day 18” value amounted to 65% and the “TGI % Day 21” value is listed as 69%. Moreover, the “TGI % Day 25” value in the series on human NCI-H69 SCLC came out at 59%. Moreover, in the series with human NCI-H69 SCLC (setting [9]), the “TGI % Day 13” value is 69.1%, the “TGI % Day 17” value turned out to be 75.6%, the “TGI % Day 20” value is listed as 76.8% and the “TGI % Day 24” value stood at 72.7%. For the same molecule, the “TGI % Day 30” value in the series on human NCI-H69 SCLC (setting [9]) is recorded as 72.1%. In the series on human NCI-H69 SCLC (setting [10]), the “TGI % Day 13” value was 93.4%, the “TGI % Day 17” value is reported as 96.2%, the “TGI % Day 20” value is recorded as 98.2% and the “TGI % Day 24” value was 99.5%. For the same molecule, in the series on human NCI-H69 SCLC (setting [10]), the “TGI % Day 30” value was 99.9%. The “TGI % at day 22” value in the series on human NCI-H69 SCLC (Dose 0.63 × 3 mg/kg, total dose 1.89 mg/kg) was found to be 47%. Moreover, in the series with human NCI-H69 SCLC (Dose 0.65 × 2 mg/kg, total dose 1.3 mg/kg), the “TGI % at day 22” value amounted to 69%. Also, in the series on human NCI-H69 SCLC (Dose 1.2 × 2 mg/kg, total dose 2.4 mg/kg), the “TGI % at day 22” value turned out to be 77%. Moreover, the “TGI % at day 22” value in the series on human NCI-H69 SCLC (Dose 2.0 × 2 mg/kg, total dose 4.0 mg/kg) was determined as 98%. Further, the “adjusted phospho-histone H3 response” value in the series on phospho-histone H3 (at 24 hour) was “about 500 fluorescence signal”. Moreover, in the series on phospho-histone H3 (at 48 hour), the “adjusted phospho-histone H3 response” value was “about 2300 fluorescence signal”. Moreover, the “H69 tumor PK normalized- uM/umol/kg at 1 mpk in 10% PG” value in series [4] was “Ca. 0.420 uM/umol/kg”. In series [5], this molecule returned an AUC(0-inf) of 4.45 µM·h and a Cmax of 3000 nM. Besides, the half-life in series [5] (read-out: t½ (converted)) is 2.05 h. In addition, the chromatographic logP in series [6] came out at 2.06.
Regarding `COc1cc2cc(c1Cl)N(C)C(=O)C[C@H](OC(=O)[C@H](C)N(C)C(=O)CCSSC(C)(C)[C@H](NC(=O)[C@@H]1CSSC[C@H](NC(=O)[C@@H](Cc3ccccc3)NS(C)(=O)=O)C(=O)N[C@@H](Cc3ccc(O)cc3)C(=O)N[C@H](Cc3c[nH]c4ccccc34)C(=O)N[C@@H](CCCCN)C(=O)N[C@@H]([C@@H](C)O)C(=O)N1)C(N)=O)[C@]1(C)O[C@H]1[C@H](C)[C@@H]1C[C@@](O)(NC(=O)O1)[C@H](OC)/C=C/C=C(\C)C2` [Conjugate 10], the Ligand charge result in series [1] was “+1”. The Ki on human SSTR2 came to 0.035 nM. The IC50 in [3] (setting [7]) is 3.3 nM. In addition, the 50% inhibitory concentration (IC50) in series [3] (setting [8]) was 246 nM. In addition, in the series with human NCI-H69 SCLC, the “TGI % Day 11” value worked out at 48%, the “TGI % Day 14” value worked out at 59%, the “TGI % Day 18” value is given as 54% and the “TGI % Day 21” value was determined as 53%. Also, in the series with human NCI-H69 SCLC, the “TGI % Day 25” value was found to be 42%. Moreover, in the series with human NCI-H69 SCLC (setting [11]), the “TGI % Day 13” value turned out to be 92.2%, the “TGI % Day 17” value amounted to 95.6%, the “TGI % Day 20” value is 97.8% and the “TGI % Day 24” value is listed as 99.5%. In addition, the “TGI % Day 30” value with human NCI-H69 SCLC (setting [11]) was determined as 99.6%. The “TGI % at day 22” value in the series on human NCI-H69 SCLC (Dose 0.60 × 2 mg/kg, total dose 1.20 mg/kg) is reported as 53%. For the same molecule, in the series with human NCI-H69 SCLC (Dose 1.54 × 2 mg/kg, total dose 3.08 mg/kg), the “TGI % at day 22” value is 98%. Moreover, the “H69 tumor PK normalized- uM/umol/kg at 1 mpk in 10% PG” value in [4] was found to be 0.546 uM/umol/kg. The molecule also came in with a chromatographic logP in [6] of 2.66.
In the case of `COc1cc2cc(c1Cl)N(C)C(=O)C[C@H](OC(=O)[C@H](C)N(C)C(=O)CCSSC[C@H](NC(=O)[C@@H]1CSSC[C@H](NC(=O)[C@@H](Cc3ccccc3)NC(=O)NCc3ccc(C(F)(F)F)cc3)C(=O)N[C@@H](Cc3ccc(O)cc3)C(=O)N[C@H](Cc3c[nH]c4ccccc34)C(=O)N[C@@H](CCCCN)C(=O)N[C@@H]([C@@H](C)O)C(=O)N1)C(N)=O)[C@]1(C)O[C@H]1[C@H](C)[C@@H]1C[C@@](O)(NC(=O)O1)[C@H](OC)/C=C/C=C(\C)C2` [Conjugate 37], the Ligand charge result in series [1] was “+1”. The molecule also gave a Ki on human SSTR2 of 0.16 nM. Moreover, the values for the IC50 in series [3] (setting [7]) and in [3] (setting [8]) were 3.7 nM and 93 nM, respectively. The chromatographic logP in series [6] is 3.07.
Turning to `CCNC(=O)N[C@H](Cc1ccccc1)C(=O)N[C@H]1CSSC[C@@H](C(=O)N[C@@H](CSSCCC(=O)N(C)[C@@H](C)C(=O)O[C@H]2CC(=O)N(C)c3cc(cc(OC)c3Cl)C/C(C)=C/C=C/[C@@H](OC)[C@@]3(O)C[C@H](OC(=O)N3)[C@@H](C)[C@@H]3O[C@@]23C)C(=O)NCC)NC(=O)[C@H]([C@@H](C)O)NC(=O)[C@H](CCCCN)NC(=O)[C@@H](Cc2c[nH]c3ccccc23)NC(=O)[C@H](Cc2ccc(O)cc2)NC1=O` [Conjugate 30], the Ligand charge result in series [1] was “+1”. For the same molecule, the Ki on human SSTR2 was found to be 0.071 nM. Moreover, the results for the half-inhibitory concentration (IC50) in [3] (setting [7]) and in series [3] (setting [8]) were 2.4 nM and 27 nM, respectively. In series [6], this molecule gave a chromatographic logP of 2.79.
Turning to `COc1cc2cc(c1Cl)N(C)C(=O)C[C@H](OC(=O)[C@H](C)N(C)C(=O)CCSSC(C)(C)[C@H](NC(=O)[C@@H]1CSSC[C@H](NC(=O)[C@@H](Cc3ccccc3)NC(=O)NCc3ccccc3)C(=O)N[C@@H](Cc3ccc(O)cc3)C(=O)N[C@H](Cc3c[nH]c4ccccc34)C(=O)N[C@@H](CCCCN)C(=O)N[C@@H]([C@@H](C)O)C(=O)N1)C(N)=O)[C@]1(C)O[C@H]1[C@H](C)[C@@H]1C[C@@](O)(NC(=O)O1)[C@H](OC)/C=C/C=C(\C)C2` [Conjugate 7], in [1], the Ligand charge entry is recorded as “+1”. Besides, the inhibitory constant (Ki) on human SSTR2 came to 0.025 nM. The IC50 in [3] (setting [7]) turned out to be 4.7 nM; in [3] (setting [8]), 181 nM. The chromatographic logP in series [6] amounted to 2.6.
Regarding `COc1cc2cc(c1Cl)N(C)C(=O)C[C@H](OC(=O)[C@H](C)N(C)C(=O)CCSSC(C)(C)[C@H](NC(=O)[C@@H]1CSSC[C@H](NC(=O)[C@H](N)Cc3ccccc3)C(=O)N[C@@H](Cc3ccc(O)cc3)C(=O)N[C@H](Cc3c[nH]c4ccccc34)C(=O)N[C@@H](CCCCNC(=O)NCCCCCCN)C(=O)N[C@@H]([C@@H](C)O)C(=O)N1)C(N)=O)[C@]1(C)O[C@H]1[C@H](C)[C@@H]1C[C@@](O)(NC(=O)O1)[C@H](OC)/C=C/C=C(\C)C2` [Conjugate 57], the Ligand charge result in [1] is “+2”. Moreover, the Ki at human SSTR2 is 69 nM. Moreover, the concentration for half-maximal inhibition (IC50) amounted to 408 nM in series [3] (setting [7]) and 652 nM in series [3] (setting [8]). In addition, the chromatographic logP in series [6] was determined as 2.12.

The values are drawn from patent publication US20190125888A1, “TARGETED CONJUGATES AND PARTICLES AND FORMULATIONS THEREOF” (priority 2015, published 2019).
